Molecules are shown by their SMILES. Where two headings read alike, the source gives them in different places.

One series has as its system SLCO1B1 rs4149056 SNP. To be noted: summary estimate with interval in brackets; cited from earlier work.
For series [1] the following is noted: Asian subjects compared with a White (Caucasian) control group; cited from earlier work.
For series [2] the following is noted: cited from earlier work.
The conditions of series [3]: for Cumulative percentage with myopathy / Estimated cumulative myopathy risk: 80 mg simvastatin daily; for Estimated cumulative myopathy risk: life-table analysis. An excerpt: After randomisation, follow-up of participants was scheduled to occur at 2, 4, 8 and 12 months, and then at 6-monthly intervals. Information was sought about any possible myocardial infarction, hospitalisation for angina, stroke, vascular procedure, pulmonary embolus, cancer or other serious adverse experience. In addition, any new unexplained muscle pain or weakness was explicitly sought and recorded. A blood sample was taken at each follow-up visit for central laboratory assay of CK and ALT.
Standard 1d.f. (trend) and 2 d.f. […] Haploview v4.0 release candidate 2^25 was used to estimate linkage disequilibrium and plot association results for genotyped SNPs. Haplotype frequencies and associated risks were estimated using tools in the haplo.stats (v1.3.1) package^26 in R (v2.6.1)^27. Physical positions refer to NCBI build-36 of the human genome, and alleles are expressed in the forward strand of the reference human genome (NCBI build-36). Ensembl version 46 and NCBI dbSNP build 127 and published reports^11,28,29 were used to classify SNPs as synonymous or non-synonymous and to identify their location within introns or exons.

Series [4] in a line: Heart Protection Study (HPS): myopathy in participants allocated 40 mg simvastatin daily. In kind it is in vivo, human. How it is done: (§1) Using DNA extracted from 19,856 (97%) participants, the rs4149056 and rs2306283 SNPs in SLCO1B1 were successfully genotyped in 16,664 participants classified as Caucasian. Effects of these genotypes on myopathy risk and on LDL-cholesterol reduction were then assessed.

The test system of a further series is LDL-cholesterol. As to the kind of experiment: Heart Protection Study (HPS): LDL-cholesterol reduction on 40 mg simvastatin daily. To be noted: 4-6 weeks of 40 mg simvastatin daily. It is filed as in vivo, human. As for the experimental part:
as §1
Among 16,664 genotyped participants in HPS,^22 the rs4149056 and rs2306283 variants were not associated with significant differences in pre-treatment LDL-cholesterol levels. […] These 17,000 genotyped participants without myopathy also provide an alternative control population for the SEARCH cases, yielding an odds ratio of 4.7 (3.5-6.4) per rs4149056 C allele and a stronger p-value of 3×10^−28.

Setting [5] is: among 6031 participants allocated 80 mg simvastatin daily, average follow-up about 6 years.
The mark [6] stands for this setting: among 6033 participants allocated 20 mg simvastatin daily.
Where [7] appears, read: among 10,269 participants allocated 40 mg simvastatin daily, 5 years average follow-up.

`CC(C)n1c(/C=C/C(O)CC(O)CC(=O)O)c(-c2ccc(F)cc2)c2ccccc21` (stereo not drawn) [Fluvastatin (acid), Fluvastatin]: the “% higher AUC per C allele among studies of this statin” value in the series on SLCO1B1 rs4149056 SNP is 10 (−9, 34) %.
Turning to `O=C(O)C[C@H](O)C[C@H](O)/C=C/c1c(C2CC2)nc2ccccc2c1-c1ccc(F)cc1` [Pitavastatin (acid), Pitavastatin], the “% higher AUC per C allele among studies of this statin” value in the series with SLCO1B1 rs4149056 SNP is 37 (10, 71) %.
Turning to `CC[C@H](C)C(=O)O[C@H]1C[C@H](O)C=C2C=C[C@H](C)[C@H](CC[C@@H](O)C[C@@H](O)CC(=O)O)[C@H]21` [Pravastatin (acid), Pravastatin], the “% higher AUC per C allele among studies of this statin” value with SLCO1B1 rs4149056 SNP is 35 (17, 56) %.
With `CC(C)c1nc(N(C)S(C)(=O)=O)nc(-c2ccc(F)cc2)c1/C=C/[C@@H](O)C[C@@H](O)CC(=O)O` [Rosuvastatin (acid), Rosuvastatin], the “Elevation in median exposure of rosuvastatin” value in series [1] is approximately 2 fold. Besides, in the series with SLCO1B1 rs4149056 SNP, the “% higher AUC per C allele among studies of this statin” value is 31 (15, 42) %. For the same compound, the “Increase in AUC of rosuvastatin” value in series [2] (rosuvastatin combined with cyclosporine) is given as 7-11 times.
For the compound `CCC(C)(C)C(=O)O[C@H]1C[C@@H](C)C=C2C=C[C@H](C)[C@H](CC[C@@H](O)C[C@@H](O)CC(=O)O)[C@H]21` [Simvastatin acid], in the series on SLCO1B1 rs4149056 SNP, the “% higher AUC per C allele among studies of this statin” value is 61 (30, 100) %.
Consider `Cc1ccc(C)c(OCCCC(C)(C)C(=O)O)c1` [gemfibrozil], for which the “Increase in area under the statin elimination curve (AUC)” value in series [2] (gemfibrozil given concomitantly with several statins) is reported as 2-4 fold.
Turning to `CCC(C)(C)C(=O)O[C@H]1C[C@@H](C)C=C2C=C[C@H](C)[C@H](CC[C@@H]3C[C@@H](O)CC(=O)O3)[C@H]21` [simvastatin], the “Cumulative percentage with myopathy” value is 0.91% in series [3] (all genotypes, Year 1); 1.56% in series [3] (all genotypes, Year 5); 15.25% in series [3] (rs4149056 genotype CC, Year 1); 18.55% in series [3] (rs4149056 genotype CC, Year 5); 1.38% in series [3] (rs4149056 genotype CT, Year 1); 2.83% in series [3] (rs4149056 genotype CT, Year 5). Besides, the “Cumulative percentage with myopathy” value in series [3] (rs4149056 genotype TT, Year 1) was determined as 0.34%; in series [3] (rs4149056 genotype TT, Year 5), 0.63%. Moreover, the “Estimated cumulative myopathy risk” value is 18% in series [3] (rs4149056 CC homozygotes), “about 3%” in series [3] (rs4149056 CT genotype) and 0.6% in series [3] (rs4149056 TT homozygotes). Further, the “Number of definite myopathy cases” value is given as 49 in series [3] (setting [5]), 2 in series [3] (setting [6]) and 10 in series [4] (setting [7]). Besides, the entries for the “Number of incipient myopathy cases” value in series [3] (setting [5]), in series [3] (setting [6]) and in series [4] (setting [7]) were 49, 6 and 14, respectively. Moreover, in series [4] (setting [7]), the “Number of myopathy cases (definite plus incipient)” value is recorded as 24. The “Number of definite or incipient myopathy cases while taking statin” value in series [4] (participants taking their allocated 40 mg simvastatin daily) amounted to 23. Further, the “Average reduction in LDL-cholesterol” value in the series on LDL-cholesterol (16,664 genotyped participants, SE 0.12) came out at 40.57%. Further, the “Larger LDL-cholesterol reduction per rs2306283 G allele” value with LDL-cholesterol (both variants considered together, SE 0.18) was determined as 0.62%. In the series on LDL-cholesterol (both variants considered together, SE 0.25), the “Smaller LDL-cholesterol reduction per rs4149056 C allele” value was 1.28%.

The values are drawn from patent US8455194B2, “Diagnostic methods” (Isis Innovation Limited, priority 2008, dated 2013).
